Assay results: patent US9926369B2, “Methods for treating hepatocellular cancer by administering an anti-Ang-2 antibody” (Regeneron Pharmaceuticals, Inc., priority 2009, dated 2018)

Legend:
[1] = molecular target: biotin-hBA2 binding to hTie-2 (Homo sapiens, UniProt O15123); assay: ELISA blocking of biotinylated hBA2 binding to hTie-2-His; type: biochemical; conditions: antibodies cloned onto human IgG1; NB: no blocking observed at 5 nM concentration; read-out: Biotin - hBA2 IC50
Experimental: For this experiment, human Tie-2 conjugated to a histidine tag (hTie-2-His; SEQ ID NO:526) was used in a similar fashion to the hTie-2-mFc described above. Antibody concentrations from 5 nM were serially diluted three-fold. […] An average IC50 value for each antibody was calculated based on two separate experiments.

[2] = tested on: COLO 205 (Human Colorectal Adenocarcinoma Cell Line) tumors; assay: COLO 205 mouse tumor model; type: in vivo, mice
Experimental: Briefly, 2×10^6COLO 205 cells in 100 μl of serum-free medium were injected subcutaneously into the flank of 6-8 week old male NCr nude mice (Taconic, Hudson, N.Y.). After tumor volumes reached an average of about 150 mm^3, mice were randomized into groups for treatment with antibody or Fc protein. Mice in each treatment group were administered an anti-Ang-2 antibody or Fc protein at a concentration of 4 mg/kg via intraperitoneal injection twice per week for approximately two weeks. Tumor volumes were measured twice per week over the course of the experiment and tumor weights were measured upon excision of tumors at the conclusion of the experiment. Averages (mean+/−standard deviation) of tumor weight and growth were calculated for each treatment group. “Avg. Tumor Growth” represents the average growth from the time of treatment initiation (when tumors were approximately 150 mm^3). Percent decrease of tumor weight and growth are calculated from comparison to Fc protein measurements.
A similar experiment was carried out to assess the effect of H1H685P, in particular, on COLO 205 tumor growth. Briefly, 2×10^6 COLO 205 cells in 100 μl of serum-free medium were implanted subcutaneously into the right hind flank of 9-11 week-old male SCID CB17 mice. When the tumors reached ˜125 mm^3, mice were randomized into 5 groups (n=7-8 mice/group) and treated twice per week with Fc protein (15 mg/kg), H1H685P (5 or 25 mg/kg) or Control II (5 or 25 mg/kg) for a period of 19 days. Tumor volumes were measured twice per week over the course of the experiment and tumor weights were measured upon excision of tumors at the end of the experiment. Averages of tumor weight and growth from the beginning of treatment were calculated for each group. Percent decrease of tumor weight and growth are calculated from comparison to the Fc control group.
To determine the effect of combining an anti-Ang-2 antibody with a VEGF inhibitor on the growth of COLO 205 xenografts, 2×10^6 cells were implanted subcutaneously into the right hind flank of 6-8 week-old female SCID mice. When the tumors reached an average volume of ˜350 mm^3, mice were randomized into 4 groups (n=6 mice/group) and treated with: human Fc protein (7.5 mg/kg), H1H685P (5 mg/kg), VEGF Trap (see U.S. Pat. No. 7,087,411) (2.5 mg/kg) or the combination of H1H685P+VEGF Trap. Mice were given a total of 3 doses over 10 days of treatment. Tumor volumes were measured twice per week over the course of the experiment. Averages of tumor growth from the start of treatment (mean+/−standard deviation) were calculated for each treatment group. Percent decrease of tumor growth was calculated from comparison to the Fc control group.
To test the effect of H1H685P in combination with a chemotherapeutic agent on tumor growth, 2.5×10^6 COLO 205 tumor cells were implanted subcutaneously into the right hind flank of 8-9 week-old male SCID mice. When the tumors reached an average volume of ˜150 mm^3 (day 17 after implantation), mice were randomized into 4 groups (n=5 mice/group) and treated as follows: the first group was treated sc with 15 mg/kg hFc and intraperitoneally (ip) with 5-FU vehicle; the second group was treated sc with 15 mg/kg of H1H685P; the third group was treated ip with 75 mg/kg of 5-FU; the fourth group was treated with the combination of 15 mg/kg H1H685P sc plus 75 mg/kg 5-FU ip. Mice received a total of three treatments, administered every 3-4 days. Tumor volumes were measured twice per week over the course of the experiment. Average (mean+/−standard deviation) tumor growth from the beginning of treatment until day 38 was calculated for each group. Percent decrease of tumor growth was calculated from comparison to the control group.

[3] = molecular target: T1, hAng-2FD-mFc N-467-G (Homo sapiens, UniProt O15123, N467G); assay: Ang-2FD-mFc point mutant binding experiment (SPR), N-467-G; conditions: N-467-G mutant captured; antibody/peptibody at 100 nM; 25° C.
T1 construct: made in house
Source text: To further characterize binding between hAng2 and anti-hAng2 mAbs of the invention, seven variant hAng2-FD-mFc proteins were generated, each containing a single point mutation. Amino acids selected for mutation were based on the difference in sequence between hAng-2 and hAng-1 in the region that interacts with hTie-2 (FIG. 1). In particular, amino acids within the fibrinogen-like domain (FD) of Ang-2 which are believed to interact with Tie-2 based on crystal structure analysis, but which differ from the corresponding amino acid in Ang-1, were individually mutated to the corresponding hAng-1 residue. The results of this example indicate the amino acid residues of hAng-2 with which the Ang-2 preferential binding antibodies interact.
In this experiment, each of the seven hAng-2FD-mFc mutant proteins were captured (˜147-283 RU) on an anti-mouse-Fc surface created through direct chemical coupling to a BIACORE™ chip. Then each Ang-2 antibody (or peptibody, as the case may be) at 100 nM was injected over the captured mFc-tagged hAng-2FD protein surface at a flowrate of 50 μl/min for 180 sec, and the dissociation of variant hAng2-FD-mFc and antibody was monitored in real time for 20 min at 25° C.

[4] = COLO 205, SCID CB17 mice, 5 mg/kg twice per week, 19 days
[5] = COLO 205, SCID CB17 mice, 25 mg/kg twice per week, 19 days
[6] = COLO 205, female SCID mice, H1H685P 5 mg/kg, VEGF Trap 2.5 mg/kg, 3 doses over 10 days
[7] = COLO 205, male SCID mice, H1H685P 15 mg/kg sc, 5-FU 75 mg/kg ip, three treatments, until day 38

T1 sequence (O15123 with tags, fused parts or gaps N467G): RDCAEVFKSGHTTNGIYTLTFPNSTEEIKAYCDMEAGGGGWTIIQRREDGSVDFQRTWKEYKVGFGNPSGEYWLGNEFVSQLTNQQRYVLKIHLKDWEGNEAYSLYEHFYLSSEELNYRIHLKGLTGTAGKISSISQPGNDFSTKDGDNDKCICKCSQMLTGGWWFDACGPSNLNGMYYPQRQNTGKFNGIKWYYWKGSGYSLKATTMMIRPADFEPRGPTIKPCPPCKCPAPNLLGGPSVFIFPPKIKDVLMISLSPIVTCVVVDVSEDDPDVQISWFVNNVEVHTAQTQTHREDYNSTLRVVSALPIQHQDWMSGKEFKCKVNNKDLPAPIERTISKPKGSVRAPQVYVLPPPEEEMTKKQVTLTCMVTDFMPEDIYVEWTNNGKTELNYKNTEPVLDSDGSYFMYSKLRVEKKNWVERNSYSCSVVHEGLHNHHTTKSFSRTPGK
Sequence of biotin-hBA2 binding to hTie-2 (O15123 with tags, fused parts or gaps): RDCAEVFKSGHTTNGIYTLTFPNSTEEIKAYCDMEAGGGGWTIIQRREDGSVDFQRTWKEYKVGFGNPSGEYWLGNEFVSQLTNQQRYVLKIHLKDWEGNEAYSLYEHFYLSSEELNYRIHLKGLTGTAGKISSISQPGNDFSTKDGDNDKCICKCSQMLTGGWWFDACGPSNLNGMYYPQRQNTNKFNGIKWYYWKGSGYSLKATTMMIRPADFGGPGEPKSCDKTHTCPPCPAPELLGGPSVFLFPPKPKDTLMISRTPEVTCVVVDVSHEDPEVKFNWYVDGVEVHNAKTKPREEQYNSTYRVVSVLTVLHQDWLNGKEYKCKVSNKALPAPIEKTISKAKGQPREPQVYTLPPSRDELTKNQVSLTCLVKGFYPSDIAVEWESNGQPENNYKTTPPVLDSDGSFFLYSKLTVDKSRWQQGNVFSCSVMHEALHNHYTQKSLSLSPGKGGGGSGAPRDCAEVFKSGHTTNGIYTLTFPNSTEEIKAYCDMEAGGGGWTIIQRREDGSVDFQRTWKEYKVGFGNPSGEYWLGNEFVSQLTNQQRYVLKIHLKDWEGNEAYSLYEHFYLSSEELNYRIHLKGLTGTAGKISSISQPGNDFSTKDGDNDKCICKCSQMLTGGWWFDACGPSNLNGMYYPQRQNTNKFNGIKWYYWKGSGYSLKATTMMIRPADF

H1H685P: human anti-Ang-2 antibody, HCVR/LCVR SEQ ID NOs 18/20; also referred to as mAb1 [Antibody H1H685P]
IC50 [1]: 0.02 nM | % Decrease in Tumor Growth [2, 4]: 45% | % Decrease in Tumor Weight [2, 4]: 43% | Avg Tumor Growth [2, 4]: 370 ± 114 mm^3 | Avg Tumor Weight [2, 4]: 0.458 ± 0.125 g | % Decrease in Tumor Growth [2, 5]: 56% | % Decrease in Tumor Weight [2, 5]: 46% | Avg Tumor Growth [2, 5]: 295 ± 160 mm^3 | Avg Tumor Weight [2, 5]: 0.430 ± 0.139 g | % Decrease in Tumor Growth [2, 6]: 80% | Avg Tumor Growth [2, 6]: 74 ± 77 mm^3 | % Decrease in Tumor Growth [2, 7]: 29% | Avg Tumor Growth [2, 7]: 405 ± 80 mm^3 | Anti-tumor activities in the COLO 205 mouse model (in words) ([2]; mouse, in vivo): substantial anti-tumor activities | Kd [3]: 0.00938 nM | RU [3]: 152.25 RU
